Measurements taken from patent publication US20240132491A1, “INDOLINE COMPOUND” (MEDSHINE DISCOVERY INC., priority 2021, published 2024).

What was measured:
MC38-hPD-L1 colon cancer = test: Drug efficacy in MC38-hPD-L1 colon cancer model of B-hPD-L1 humanized mice; type: in vivo; details: compounds 20 to 50 mg/kg p.o. BID 21 days; atezolizumab 5 mg/kg i.p. TIW 10 times
Experimental: Mouse colon cancer MC38 cells were purchased from Shunran Shanghai Biotech Co., Ltd. Biocytogen (Beijing) Co. Ltd genetically modified the MC38 cells to express human PD-L1, and named it MC38-hPD-L1. These cells were adherent cells, cultured in a 37° C., 5% CO2 incubator. The culture medium composition was Dulbecco's Modified Eagle's Medium (DMEM) containing 10% inactivated fetal bovine serum.
MC38-hPD-L1 cells resuspended in PBS were inoculated subcutaneously into the right flank of B-hPD-L1 mice at a volume of 5×10^5 cells/0.1 mL per mouse. When the average tumor volume reached 150±50 mm^3, suitable mice were selected based on tumor volume and body weight, and were evenly distributed into each group, with 8 mice per group. Drug administration started on the day of grouping. The administration vehicle of the oral administration group was 5% DMSO+95% (20% HP-β-CD in water), while the administration vehicle of the intraperitoneal injection group was 0.9% sodium chloride injection.
Note: a. The administration volume was calculated based on the weight of the experimental animals at […]; b. The dose was 20 mg/kg within 5 days after grouping, and the dose was adjusted to 50 mg/kg starting from the 6th day; c. “p.o.” refers to oral administration, “i.p.” refers to intraperitoneal injection; d. “TIW” refers to three times a week, “BID” refers to twice a day.
Tumor growth inhibition (TGITV): TGITV (%)=[1−(Ti−T0)/(Vi−V0)][…]% (Ti: mean tumor volume of the treatment group on day i of administration, T0: mean tumor volume of the treatment group on day 0 of administration, Vi: mean tumor volume of the vehicle control group on day i of administration, V0: mean tumor volume of the vehicle control group on day 0 of administration).

PD-1/PD-L1 = PD-1/PD-L1 (Homo sapiens (Human), UniProt Q9NZQ7); test: NFAT assay: TCR Activitor/PD-L1 CHO cells co-cultured with PD-1/NFAT Reporter-Jurkat cells, Bright-Glo readout; type: cell-based; details: PD-L1 CHO / PD-1 NFAT Reporter-Jurkat co-culture, 5 hours
Experimental: PD1:PD-L1 TR-FRET assay kit, purchased from BPS Biosciences. Bright-Glo reagents purchased from Promega. Nivo multimode microplate reader (PerkinElmer)
TCR Activitor/PD-L1 CHO cells with a growth confluence of 80% were seeded at 35,000 cells per well in a plate and then incubated overnight in a 37° C. cell culture incubator. The compound to be tested was 5-fold diluted with a pipette to the 8th concentration, i.e., from 100 μmol to 1.28 nmol, with a DMSO concentration of 100%. Experiments were set up in duplicate wells. 147 μL of culture medium was added to an intermediate plate, and then 3 μL of gradient diluted compound per well was transferred to the intermediate plate according to the corresponding position, resulting in compound concentrations ranging from 2 μmol to 0.0256 nmol with a DMSO concentration of 2%. The T cell receptor/PD-L1 CHO cell supernatant was discarded, and 50 μL of compound working solution was added to each well, followed by incubation at 37° C. for 30 minutes. After incubation, 50 μL of a PD-1/NFAT Reporter-Jurkat cell suspension at a density of 4×10^5/mL was added to each well, and the plate was incubated at 37° C. for 5 hours. After the incubation, 100 μL of Bright-Glo was added to each well. After mixing, chemiluminescence signals were read using a Nivo the multimode microplate reader.
Raw data was converted into inhibition rate using the equation: (Sample−Min)/(Max−Min)*100%. The IC50 value could then be derived by performing a curve fit using a four-parameter logistic model (obtained using the “log(inhibitor) vs. response—Variable slope” mode in GraphPad Prism). The degree of inhibition of the compound on PD-1/PD-L1 was calculated using the equation (Max−Min)/Min. The higher the multiple, the stronger the inhibition of the PD-1/PD-L1 pathway.

[1] = In vivo pharmacokinetics study in mice; design: species or system C57BL/6 mice; details: male, C57BL/6, plasma, mouse
Experimental: Male C57BL/6 mice were used as test animals, and the drug concentration in plasma at different times after intragastric administration of the test compound was determined by LC/MS/MS method. The pharmacokinetic behavior of the test compounds in mice in vivo was studied to evaluate their pharmacokinetic characteristics.
Test animals: Healthy male C57BL/6 mice. Drug preparation: For the IV group, the vehicle was 5% DMSO+95% (20% hydroxypropyl-β-cyclodextrin); for the PO group, the vehicle was 5% DMSO+95% (20% HP-β-CD). Administration: The dosage of the test compound was 1 mg/kg for the IV group, and 10 mg/kg or 30 mg/kg for the PO group (note: the PO group was fasted overnight before administration).
Experimental operations: After administration, whole blood was collected for a certain period of time and prepared into plasma. The drug concentration was analyzed by the LC-MS/MS method, and the pharmacokinetic parameters were calculated using Phoenix WinNonlin software (Pharsight, USA)

PD-1/PD-L1, sequence (Q9NZQ7 19-290): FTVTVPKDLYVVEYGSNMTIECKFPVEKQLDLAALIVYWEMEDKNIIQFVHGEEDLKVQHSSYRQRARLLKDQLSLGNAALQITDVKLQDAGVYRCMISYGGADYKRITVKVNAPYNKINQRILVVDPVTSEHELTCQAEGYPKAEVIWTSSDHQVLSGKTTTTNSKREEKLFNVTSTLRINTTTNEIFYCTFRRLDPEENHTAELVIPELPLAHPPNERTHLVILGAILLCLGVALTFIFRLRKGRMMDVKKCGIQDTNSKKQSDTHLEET

Row | Compound | IC50 (PD-1/PD-L1) [nM] | further results
1 | Atezolizumab: PD-L1 monoclonal antibody, approved for urothelial carcinoma and non-small cell lung cancer [reference compound] | – | Tumor growth inhibition TGITV (%) (MC38-hPD-L1 colon cancer): 88.4%
2 | Cc1c(-c2nc3cc(CN4CC[C@@](C)(O)C4)cc(C#N)c3o2)cccc1-c1cccc2c1CCN2c1nc(C(F)F)nc2cc(CN3CC[C@@H](C(=O)O)C3)cnc12 [Compound 33] | 13.6 | –
3 | COc1nc(-c2cccc(-c3cccc4c3CCN4c3nc(C(F)F)nc4cc(CN5CCC(C)(O)C5)cnc34)c2Cl)cnc1CNC[C@@H]1CCC(=O)N1 (stereo partly drawn) [Compound 18] | 3.5 | –
4 | Cc1c(-c2nc3cc(CN4CC[C@@](C)(C(=O)O)C4)cnc3o2)cccc1-c1cccc2c1CCN2c1nc(C(F)F)nc2cc(CN3CC[C@@H](O)C3)cnc12 [Compound 30] | 14.5 | –
5 | Cc1c(-c2nc3cc(CN4CC[C@@H](C(=O)O)C4)cc(C#N)c3o2)cccc1-c1cccc2c1CCN2c1nc(C(F)F)nc2cc(CN3CC[C@@H](O)C3)cnc12 [Compound 27] | 6.71 | AUC(0-inf) ([1]; iv, i.v. 1 mg/kg): 2.1 µM·h; AUC(0-t) ([1]; iv, i.v. 1 mg/kg): 1.65 µM·h; clearance ([1]; iv, i.v. 1 mg/kg): 10.6 mL/min/kg; half-life ([1]; iv, i.v. 1 mg/kg): 12.5 h; Vd ([1]; iv, i.v. 1 mg/kg, read-out: Vdss): 8.97 L/kg; bioavailability ([1]; oral, p.o. 10 mg/kg vs i.v. 1 mg/kg): 46.3%; AUC(0-inf) ([1]; po, p.o. 10 mg/kg): 9.73 µM·h; AUC(0-t) ([1]; po, p.o. 10 mg/kg): 8.91 µM·h; Cmax ([1]; po, p.o. 10 mg/kg): 680 nM; Tmax ([1]; po, p.o. 10 mg/kg): 3.33 h; half-life ([1]; po, p.o. 10 mg/kg): 6.23 h; Tumor growth inhibition TGITV (%) (MC38-hPD-L1 colon cancer): 86.1%
6 | N#Cc1cc(CN2CC[C@@H](C(=O)O)C2)cc2nc(-c3cccc(-c4cccc5c4CCN5c4nc(C(F)F)nc5cc(CN6CC[C@@H](O)C6)cnc45)c3Cl)oc12 [Compound 28] | 4.67 | –
7 | N#CCOc1nc(-c2cccc(-c3cccc4c3CCN4c3nc(C(F)F)nc4cc(CN5CC[C@@H](O)C5)cnc34)c2Cl)ccc1CNC[C@@H]1CCC(=O)N1 [Compound 7] | 3 | –
8 | COc1nc(-c2cccc(-c3cccc4c3CCN4c3nc(C(F)F)nc4cc(CN5CC[C@@H](O)C5)cnc34)c2C)ccc1CN1CC[C@](C)(C(=O)O)C1 [Compound 24] | 32.6 | –
9 | N#CCOc1nc(-c2cccc(-c3cccc4c3CCN4c3nc(C(F)F)nc4cc(CN5CC[C@@H](C(=O)O)C5)cnc34)c2Cl)ccc1CNC[C@@H]1CCC(=O)N1 [Compound 8] | 3.9 | –
10 | COc1nc(-c2cccc(-c3cccc4c3CCN4c3nc(C(F)F)nc4cc(CN5CC[C@@H](O)C5)cnc34)c2C)ccc1CN1CC[C@@](C)(C(=O)O)C1 [Compound 23] | 32.6 | –
11 | Cc1c(-c2nc3cc(CN4CC[C@@H](C(=O)O)C4)cnc3o2)cccc1-c1cccc2c1CCN2c1nc(C(F)F)nc2cc(CN3CC[C@@H](O)C3)cnc12 [Compound 29] | 6.03 | –
12 | Cc1c(-c2nc3cc(CN4CC[C@@H](O)C4)cc(C#N)c3o2)cccc1-c1cccc2c1CCN2c1nc(C(F)F)nc2cc(CN3CC[C@@H](C(=O)O)C3)cnc12 [Compound 32] | 8.98 | –
13 | COc1nc(-c2cccc(-c3cccc4c3CCN4c3nc(C(F)F)nc4cc(CN5C[C@@H](O)[C@H](O)C5)cnc34)c2Cl)cnc1CNC[C@@H]1COC(=O)N1 [Compound 22] | 22.6 | –
14 | COc1nc(-c2cccc(-c3cccc4c3CCN4c3nccc4cc(CN5CC[C@@H](O)C5)cnc34)c2Cl)cnc1CNC[C@@H]1CCC(=O)N1 [Compound 2] | 16 | AUC(0-inf) ([1]; po, p.o. 30 mg/kg): 23 µM·h; AUC(0-t) ([1]; po, p.o. 30 mg/kg): 20.6 µM·h; Cmax ([1]; po, p.o. 30 mg/kg): 1960 nM; half-life ([1]; po, p.o. 30 mg/kg): 6.9 h
15 | COc1nc(-c2cccc(-c3cccc4c3CCN4c3nc(C(F)F)nc4cc(CN5CC[C@@H](C(=O)O)C5)cnc34)c2Cl)ccc1CNC[C@@H]1CCC(=O)N1 [Compound 9] | 4.4 | –
16 | COc1nc(-c2cccc(-c3cccc4c3CCN4c3nccc4cc(CN5CC[C@@H](O)C5)cnc34)c2Cl)ccc1CNC[C@@H]1CCC(=O)N1 [Compound 1] | 35 | AUC(0-inf) ([1]; po, p.o. 30 mg/kg): 18.8 µM·h; AUC(0-t) ([1]; po, p.o. 30 mg/kg): 13.7 µM·h; Cmax ([1]; po, p.o. 30 mg/kg): 1460 nM; half-life ([1]; po, p.o. 30 mg/kg): 12 h

The next lines start with results.

Row | IC50 (PD-1/PD-L1) [nM] | Compound | further results
17 | 4.5 | COc1nc(-c2cccc(-c3cccc4c3CCN4c3nc(C(F)F)nc4cc(CN5CC[C@@H](O)C5)cnc34)c2Cl)cnc1CNC[C@@H]1CCC(=O)N1 [Compound 4] | Tumor growth inhibition TGITV (%) (MC38-hPD-L1 colon cancer): 86.1%
18 | 42.7 | COc1nc(-c2cccc(-c3cccc4c3CCN4c3nc(C(F)F)nc4cc(CN5CC[C@@H](O)C5)cnc34)c2C)cnc1CN1CCC(C)(C(=O)O)C1 (stereo partly drawn) [Compound 20] | –
19 | 10.7 | COc1nc(-c2cccc(-c3cccc4c3CCN4c3nc(C(F)F)nc4cc(CN5CC[C@@H](O)C5)cnc34)c2Cl)cnc1CNCC(C)(C)C(=O)O [Compound 14] | –
20 | 9.2 | COc1nc(-c2cccc(-c3cccc4c3CCN4c3nc(C(F)F)nc4cc(CN5CC[C@@H](O)C5)cnc34)c2Cl)ccc1CN1CCC(C)(C(=O)O)C1 (stereo partly drawn) [Compound 16] | –
21 | 19 | COc1nc(-c2cccc(-c3cccc4c3CCN4c3nc(C(F)F)nc4cc(CN5CC[C@@H](O)C5)cnc34)c2Cl)cnc1CNC[C@H](C(=O)O)C(C)C [Compound 13] | –
22 | 10.9 | COc1nc(-c2cccc(-c3cccc4c3CCN4c3nc(C(F)F)nc4cc(CN5CC[C@@H](O)C5)cnc34)c2Cl)cnc1CN1CC[C@@H](O)C1 [Compound 12] | –
23 | 7.5 | N#CCOc1nc(-c2cccc(-c3cccc4c3CCN4c3nc(C(F)F)nc4cc(CN5CC[C@@H](O)C5)cnc34)c2Cl)ccc1CN1CC[C@@H](C(=O)O)C1 [Compound 17] | –
24 | 30.7 | COc1nc(-c2cccc(-c3cccc4c3CCN4c3nc(C(F)F)nc4cc(CN5CC[C@@H](O)C5)cnc34)c2C)cnc1CN1CC[C@@H](C(=O)O)C1 [Compound 19] | –
25 | 35.1 | COc1nc(-c2cccc(-c3cccc4c3CCN4c3nc(C(F)F)nc4cc(CN5CC[C@@H](O)C5)cnc34)c2Cl)cnc1CN1CCC[C@H]1CC(=O)O [Compound 15] | –
26 | 24.6 | COc1nc(-c2cccc(-c3cccc4c3CCN4c3nc(C(F)F)nc4cc(CN5CC[C@@H](O)C5)cnc34)c2Cl)cnc1CN1CCC(C)(C(=O)O)C1 (stereo partly drawn) [Compound 11] | –
27 | 4.7 | COc1nc(-c2cccc(-c3cccc4c3CCN4c3nc(C(F)F)nc4cc(CN5CC[C@@H](O)C5)cnc34)c2Cl)ccc1CNC[C@@H]1CCC(=O)N1 [Compound 3] | –
